{"source": "ChEMBL document CHEMBL3868594", "about": "“From lead optimization to NDA approval for a new antimicrobial: Use of pre-clinical effect models and pharmacokinetic/pharmacodynamic mathematical modeling” (2016)", "type_in_all_cases": "functional", "key": {"[1]": {"tested_on": "Mycobacterium tuberculosis", "assay": "Antibacterial activity against linezolid-resistant Mycobacterium tuberculosis H37Rv in hollow-fiber infection model assessed as reduction in bacterial burden at 600 mg, po at 24 hrs dose regimen measured after 3 weeks"}, "[2]": {"tested_on": "Mycobacterium tuberculosis", "assay": "Antibacterial activity against linezolid-resistant Mycobacterium tuberculosis H37Rv in hollow-fiber infection model assessed as reduction in bacterial burden at 858 mg, po at 24 hrs dose regimen measured after 3 weeks"}, "[3]": {"tested_on": "Mycobacterium tuberculosis", "assay": "Antibacterial activity against linezolid-resistant Mycobacterium tuberculosis H37Rv in hollow-fiber infection model assessed as reduction in bacterial burden at 1116 mg, po at 24 hrs dose regimen measured after 3 weeks"}, "[4]": {"tested_on": "Mycobacterium tuberculosis", "assay": "Antibacterial activity against linezolid-resistant Mycobacterium tuberculosis H37Rv in hollow-fiber infection model assessed as reduction in bacterial burden at 342 mg, po at 24 hrs dose regimen measured after 3 weeks"}}}
{"smiles": "CC(=O)NC[C@H]1CN(c2ccc(N3CCOCC3)c(F)c2)C(=O)O1", "note": "[LINEZOLID]", "values": [{"measurement": "Activity", "setting": "[1]", "result": 1.7, "unit": "log10CFU/ml"}, {"measurement": "Activity", "setting": "[2]", "result": 3, "unit": "log10CFU/ml"}, {"measurement": "Activity", "setting": "[3]", "result": 3, "unit": "log10CFU/ml"}, {"measurement": "Activity", "setting": "[4]", "result": 0.5, "unit": "log10CFU/ml"}]}
